What was measured:
Assay in all cases: biochemical
[1] = target: TkTrm10 (Thermococcus kodakarensis, UniProt Q5JD38)
[2] = target: TkTrm10 (Thermococcus kodakarensis, UniProt Q5JD38, D206L)
[3] = target: TkTrm10 (Thermococcus kodakarensis, UniProt Q5JD38, D206A/D245A)
[4] = target: TkTrm10 (Thermococcus kodakarensis, UniProt Q5JD38, D206N/D245N)
Sequence of TkTrm10 (Thermococcus kodakarensis, UniProt Q5JD38, D206N/D245N) (Q5JD38 whole entry D206N/D245N): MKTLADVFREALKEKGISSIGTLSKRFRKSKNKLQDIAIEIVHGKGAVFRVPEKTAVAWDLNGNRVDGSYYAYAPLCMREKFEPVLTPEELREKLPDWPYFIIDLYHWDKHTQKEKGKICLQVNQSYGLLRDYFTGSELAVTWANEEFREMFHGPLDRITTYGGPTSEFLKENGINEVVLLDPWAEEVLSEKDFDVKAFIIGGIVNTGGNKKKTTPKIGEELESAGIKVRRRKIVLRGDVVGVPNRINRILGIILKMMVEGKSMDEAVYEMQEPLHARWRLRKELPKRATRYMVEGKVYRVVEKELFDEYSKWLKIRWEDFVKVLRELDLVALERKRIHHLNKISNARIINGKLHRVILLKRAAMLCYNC

Sequence of TkTrm10 (Thermococcus kodakarensis, UniProt Q5JD38, D206L) (Q5JD38 whole entry D206L): as the sequence (Q5JD38 whole entry D206N/D245N) above, with N206L, N245D counted along it
Sequence of TkTrm10 (Thermococcus kodakarensis, UniProt Q5JD38, D206A/D245A) (Q5JD38 whole entry D206A/D245A): as the sequence (Q5JD38 whole entry D206N/D245N) above, with N206A, N245A counted along it
Sequence of TkTrm10 (Thermococcus kodakarensis, UniProt Q5JD38) (Q5JD38 whole entry): as the sequence (Q5JD38 whole entry D206N/D245N) above, with N206D, N245D counted along it

Compound: C[S+](CC[C@H](N)C(=O)O)C[C@H]1O[C@@H](n2cnc3c(N)ncnc32)[C@H](O)[C@@H]1O (stereo partly shown) [SAM]
- Kd [1]: 9.4 ± 1.2 µM
- Kd [2]: 68 ± 19 µM
- Kd [3]: 20.4 ± 2.9 µM
- Kd [4]: 19.3 ± 3.4 µM

From paper PMC6049504 (RNA, 2018)
